In patent publication US12077503B2, “Substituted cyclic amides and their use as herbicides” (FMC CORPORATION, priority 2015, dated 2024):

Legend:
Type in all cases: in vivo
[1] = tested on: wheat (Triticum aestivum); experiment: Test A postemergence
Outline: (§1)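 Visual injury scores from 0, no effect, to 100, complete control, were assigned versus untreated controls roughly 10 d after treatment in the greenhouse. Test chemicals, formulated with surfactant in a non-phytotoxic solvent, were applied to planted seeds as a preemergence soil spray or postemergence to one- to two-leaf plants 2 to 10 cm tall, in loam–sand soil.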

Kochia (Kochia scoparia) [2] = experiment: Test A postemergence
Outline: as §1

[3] = tested on: blackgrass (Alopecurus myosuroides); experiment: Test A postemergence
Outline: as §1

corn (Zea mays) = experiment: Test A postemergence
Outline: as §1

[4] = tested on: ryegrass, Italian (Italian ryegrass, Lolium multiflorum); experiment: Test A postemergence
Outline: as §1

[5] = tested on: ragweed (common ragweed, Ambrosia elatior); experiment: Test A postemergence; conditions: for Plant response rating, Ragweed: postemergence, 0 to 100 scale (0 no effect, 100 complete control)
Outline: as §1

[6] = tested on: barnyardgrass (Echinochloa crus-galli); experiment: Test A postemergence; conditions: for Plant response rating, Barnyardgrass: postemergence, 0 to 100 scale (0 no effect, 100 complete control)
Outline: as §1

[7] = tested on: pigweed (Amaranthus retroflexus); experiment: Test A postemergence; conditions: for Plant response rating, Pigweed: postemergence, 0 to 100 scale (0 no effect, 100 complete control)
Outline: as §1

[8] = tested on: Galium (catchweed bedstraw, Galium aparine); experiment: Test A postemergence; conditions: for Plant response rating, Galium: postemergence, 0 to 100 scale (0 no effect, 100 complete control)
Outline: as §1

[9] = tested on: giant foxtail (Setaria faberii); experiment: Test A postemergence; conditions: for Plant response rating, Foxtail, Giant: postemergence, 0 to 100 scale (0 no effect, 100 complete control)
Outline: as §1

Kochia (Kochia scoparia) [10] = experiment: Test A preemergence
Outline: as §1

[11] = tested on: ryegrass, Italian (Italian ryegrass, Lolium multiflorum); experiment: Test A preemergence
Outline: as §1

[12] = tested on: ragweed (common ragweed, Ambrosia elatior); experiment: Test A preemergence
Outline: as §1

[13] = tested on: barnyardgrass (Echinochloa crus-galli); experiment: Test A preemergence
Outline: as §1

[14] = tested on: pigweed (Amaranthus retroflexus); experiment: Test A preemergence
[15] = tested on: giant foxtail (Setaria faberii); experiment: Test A preemergence
Outline: as §1

[16] = tested on: sedge, umbrella (small-flower umbrella sedge, Cyperus difformis); experiment: Test B flooded paddy test; conditions: Flood, 250 g ai/ha
Outline: (§2)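 Response scored visually against untreated controls, 0 = no effect and 100 = complete control, 13–15 d after treatment in the greenhouse. Compounds added to paddy water held 3 cm above soil surface. Treatment given at 2-leaf stage.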

[17] = tested on: barnyardgrass (Echinochloa crus-galli); experiment: Test B flooded paddy test; conditions: Flood, 250 g ai/ha; for Plant response rating, Barnyardgrass: 0 to 100 scale where 0 is no effect and 100 is complete control, 13 to 15 d
Outline: as §2

rice (Oryra sativa) = experiment: Test B flooded paddy test; conditions: Flood, 250 g ai/ha; for Plant response rating, Rice: 0 to 100 scale where 0 is no effect and 100 is complete control, 13 to 15 d
Outline: as §2

[18] = tested on: ducksalad (Heteranthera limosa); experiment: Test B flooded paddy test; conditions: Flood, 250 g ai/ha; for Plant response rating, Ducksalad: 0 to 100 scale where 0 is no effect and 100 is complete control, 13 to 15 d
Outline: as §2

[19] = 125 g ai/ha, postemergence, visual rating after approx. 10 d, 0 to 100 scale (0 no effect, 100 complete control)
[20] = 500 g ai/ha, postemergence, visual injury, 0 to 100 scale (0 no effect, 100 complete control), approx. 10 d
[21] = 125 g ai/ha, visual rating after approx. 10 d
[22] = 500 g ai/ha, visual injury, approx. 10 d
[23] = 125 g ai/ha, Preemergence, visual injury after approximately 10 d, 0 to 100 scale where 0 is no effect and 100 is complete control
[24] = 500 g ai/ha, preemergence, 0 to 100 scale, 0 = no effect, 100 = complete control
[25] = 125 g ai/ha, Postemergence, visual injury after approximately 10 d, 0 to 100 scale where 0 is no effect and 100 is complete control
[26] = 125 g ai/ha, Preemergence, visual injury rating after approximately 10 d
[27] = scale of 0 to 100 where 0 is no effect and 100 is complete control
[28] = 125 g ai/ha, postemergence, visual injury after approximately 10 d, 0 to 100 scale (0 no effect, 100 complete control)
[29] = 125 g ai/ha, visual injury after approximately 10 d
[30] = 125 g ai/ha, preemergence, visual rating after approx. 10 d, 0 to 100 scale where 0 is no effect and 100 is complete control

Cc1ccc(C2CNC(=O)C2C(=O)Nc2ccc(F)cc2F)cc1C(F)(F)F (racemic) [Compound 680]
Plant response rating, Wheat [1, 19]: 0 | Plant response rating, Wheat [1, 20]: 0 | Plant response rating, Kochia (Kochia (Kochia scoparia) [2]; [19]): 0 | Plant response rating, Kochia (Kochia (Kochia scoparia) [2]; [20]): 0 | Plant response rating, Blackgrass [3, 19]: 20 | Plant response rating, Blackgrass [3, 20]: 20 | Plant response rating, Corn (corn (Zea mays); [19]): 20 | Plant response rating, Corn (corn (Zea mays); [20]): 20 | Plant response rating, Ryegrass, Italian [4, 19]: 0 | Plant response rating, Ryegrass, Italian [4, 20]: 0 | Plant response rating, Ragweed [5, 21]: 0 | Plant response rating, Ragweed [5, 22]: 0 | Plant response rating, Barnyardgrass [6, 21]: 30 | Plant response rating, Barnyardgrass [6, 22]: 60 | Plant response rating, Pigweed [7, 21]: 0 | Plant response rating, Pigweed [7, 22]: 0 | Plant response rating, Galium [8, 21]: 0 | Plant response rating, Galium [8, 22]: 20 | Plant response rating, Foxtail, Giant [9, 21]: 0 | Plant response rating, Foxtail, Giant [9, 22]: 30 | Plant response rating, Kochia (Kochia (Kochia scoparia) [10]; [23]): 0 | Plant response rating, Kochia (Kochia (Kochia scoparia) [10]; [24]): 20 | Plant response rating, Ryegrass, Italian [11, 23]: 0 | Plant response rating, Ryegrass, Italian [11, 24]: 20 | Plant response rating, Ragweed [12, 23]: 0 | Plant response rating, Ragweed [12, 24]: 0 | Plant response rating, Barnyardgrass [13, 23]: 30 | Plant response rating, Barnyardgrass [13, 24]: 90 | Plant response rating, Pigweed [14, 23]: 0 | Plant response rating, Pigweed [14, 24]: 0 | Plant response rating, Foxtail, Giant [15, 23]: 60 | Plant response rating, Foxtail, Giant [15, 24]: 90 | Plant response rating, Sedge, Umbrella ([16]; 0 to 100 scale where 0 is no effect and 100 is complete control, 13 to 15 d): 0 | Plant response rating, Barnyardgrass [17]: 20 | Plant response rating, Rice (rice (Oryra sativa)): 15 | Plant response rating, Ducksalad [18]: 30

Cc1ccc([C@H]2CN(C)C(=O)[C@@H]2C(=O)Nc2ccccc2[S+](C)[O-])cc1F (single isomer, unassigned) [Compound 987]
Plant response rating, Wheat [1, 25]: 0 | Plant response rating, Kochia (Kochia (Kochia scoparia) [2]; [25]): 0 | Plant response rating, Blackgrass [3, 25]: 0 | Plant response rating, Corn (corn (Zea mays); [25]): 0 | Plant response rating, Ryegrass, Italian [4, 25]: 0 | pest or weed control at 125 g/ha ([5]; Ambrosia artemisiifolia, post-emergence, 240 h, 125 g ai/ha, Postemergence, visual injury after approximately 10 d, 0 to 100 scale where 0 is no effect and 100 is complete control, read-out: Plant response rating, Ragweed): 0% | pest or weed control at 125 g/ha ([6]; Echinochloa crus-galli, post-emergence, 240 h, 125 g ai/ha, Postemergence, visual injury after approximately 10 d, 0 to 100 scale where 0 is no effect and 100 is complete control, read-out: Plant response rating, Barnyardgrass): 80% | pest or weed control at 125 g/ha ([7]; Amaranthus retroflexus, post-emergence, 240 h, 125 g ai/ha, Postemergence, visual injury after approximately 10 d, 0 to 100 scale where 0 is no effect and 100 is complete control, read-out: Plant response rating, Pigweed): 0% | pest or weed control at 125 g/ha ([8]; Galium, post-emergence, 240 h, 125 g ai/ha, Postemergence, visual injury after approximately 10 d, 0 to 100 scale where 0 is no effect and 100 is complete control, read-out: Plant response rating, Galium): 40% | pest or weed control at 125 g/ha ([9]; Setaria faberi, post-emergence, 240 h, 125 g ai/ha, Postemergence, visual injury after approximately 10 d, 0 to 100 scale where 0 is no effect and 100 is complete control, read-out: Plant response rating, Foxtail, Giant): 60% | Kochia plant response rating (0 to 100 scale, 0 is no effect, 100 is complete control) (Kochia (Kochia scoparia) [10]; [26]): 0 | pest or weed control at 500 g/ha (Kochia (Kochia scoparia) [10]; Bassia scoparia, pre-emergence, 240 h, 500 g ai/ha, preemergence, visual injury rating about 10 d after treatment, 0 to 100 scale (0 no effect, 100 complete control), read-out: Kochia plant response rating): 60% | pest or weed control at 125 g/ha ([11]; Lolium multiflorum, pre-emergence, 240 h, 125 g ai/ha, Preemergence, visual injury rating after approximately 10 d, read-out: Ryegrass, Italian plant response rating (0 to 100 scale, 0 is no effect, 100 is complete control)): 0% | pest or weed control at 500 g/ha ([11]; Lolium multiflorum, pre-emergence, 240 h, 500 g ai/ha, preemergence, visual injury rating about 10 d after treatment, 0 to 100 scale (0 no effect, 100 complete control), read-out: Ryegrass, Italian plant response rating): 40% | Ragweed plant response rating (0 to 100 scale, 0 is no effect, 100 is complete control) [12, 26]: 0 | Ragweed plant response rating ([12]; 500 g ai/ha, preemergence, visual injury rating about 10 d after treatment, 0 to 100 scale (0 no effect, 100 complete control)): 0 | Barnyardgrass plant response rating (0 to 100 scale, 0 is no effect, 100 is complete control) [13, 26]: 60 | pest or weed control at 500 g/ha ([13]; Echinochloa crus-galli, pre-emergence, 240 h, 500 g ai/ha, preemergence, visual injury rating about 10 d after treatment, 0 to 100 scale (0 no effect, 100 complete control), read-out: Barnyardgrass plant response rating): 90% | Pigweed plant response rating (0 to 100 scale, 0 is no effect, 100 is complete control) [14, 26]: 0 | pest or weed control at 500 g/ha ([14]; Amaranthus retroflexus, pre-emergence, 240 h, 500 g ai/ha, preemergence, visual injury rating about 10 d after treatment, 0 to 100 scale (0 no effect, 100 complete control), read-out: Pigweed plant response rating): 20% | pest or weed control at 125 g/ha ([15]; Setaria faberi, pre-emergence, 240 h, 125 g ai/ha, Preemergence, visual injury rating after approximately 10 d, read-out: Foxtail, Giant plant response rating (0 to 100 scale, 0 is no effect, 100 is complete control)): 90% | pest or weed control at 500 g/ha ([15]; Setaria faberi, pre-emergence, 240 h, 500 g ai/ha, preemergence, visual injury rating about 10 d after treatment, 0 to 100 scale (0 no effect, 100 complete control), read-out: Foxtail, Giant plant response rating): 90% | pest or weed control at 250 g/ha ([16]; Cyperus difformis, 0 to 100 scale where 0 is no effect and 100 is complete control, read-out: Sedge, Umbrella plant response rating): 0% | pest or weed control at 250 g/ha ([17]; Echinochloa crus-galli, scale of 0 to 100 where 0 is no effect and 100 is complete control, read-out: Barnyardgrass plant response rating): 90% | pest or weed control at 250 g/ha (rice (Oryra sativa); Oryza sativa, scale of 0 to 100 where 0 is no effect and 100 is complete control, read-out: Rice plant response rating): 35% | Ducksalad plant response rating [18, 27]: 75

O=C1NCC(c2cccc(Br)c2)C1C(=O)Nc1ccc(F)c(F)c1F (racemic) [Compound 689]
Plant response rating, Wheat [1, 28]: 20 | Plant response rating, Wheat [1, 20]: 60 | Plant response rating, Kochia (Kochia (Kochia scoparia) [2]; [28]): 30 | Plant response rating, Kochia (Kochia (Kochia scoparia) [2]; [20]): 60 | Plant response rating, Blackgrass [3, 19]: 50 | Plant response rating, Blackgrass [3, 20]: 60 | Plant response rating, Corn (corn (Zea mays); [28]): 60 | Plant response rating, Corn (corn (Zea mays); [20]): 80 | Plant response rating, Ryegrass, Italian [4, 28]: 30 | Plant response rating, Ryegrass, Italian [4, 20]: 60 | Plant response rating, Ragweed [5, 29]: 0 | Plant response rating, Ragweed [5, 22]: 50 | Plant response rating, Barnyardgrass [6, 21]: 90 | Plant response rating, Barnyardgrass [6, 22]: 90 | Plant response rating, Pigweed [7, 29]: 30 | Plant response rating, Pigweed [7, 22]: 60 | Plant response rating, Galium [8, 29]: 50 | Plant response rating, Galium [8, 22]: 50 | Plant response rating, Foxtail, Giant [9, 29]: 80 | Plant response rating, Foxtail, Giant [9, 22]: 90 | Plant response rating, Kochia (Kochia (Kochia scoparia) [10]; [23]): 20 | Plant response rating, Kochia (Kochia (Kochia scoparia) [10]; [24]): 60 | Plant response rating, Ryegrass, Italian [11, 30]: 0 | Plant response rating, Ryegrass, Italian [11, 24]: 20 | Plant response rating, Ragweed [12, 30]: 0 | Plant response rating, Ragweed [12, 24]: 30 | Plant response rating, Barnyardgrass [13, 23]: 90 | Plant response rating, Barnyardgrass [13, 24]: 90 | Plant response rating, Pigweed [14, 30]: 20 | Plant response rating, Pigweed [14, 24]: 40 | Plant response rating, Foxtail, Giant [15, 23]: 90 | Plant response rating, Foxtail, Giant [15, 24]: 90 | Sedge, Umbrella plant response rating [16, 27]: 0 | Plant response rating, Barnyardgrass [17]: 40 | Plant response rating, Rice (rice (Oryra sativa)): 0 | Plant response rating, Ducksalad [18]: 98
